# Data published in patent publication US20260068882A1, “ARTHROPOD CONTROLLING COMPOSITION” (Firmenich SA, priority 2019, published 2026).
# Where two headings read alike, the source gives them in different places.
# Assays:
# Aedes aegypti = experiment: In vitro Warm Body assay, mosquitoes landing on treated warm body; assay type: in vivo
# Description: (§1) The arthropod controlling effect according to the present invention is determined on mosquitoes using an adapted Warm Body assay as defined in Kröber T, Kessler S, Frei J, Bourquin M, Guerin P M. An in vitro assay for testing mosquito controlling compounds employing a warm body and carbon dioxide as a behavioral activator. J Am Mosq Control Assoc. 2010; 26:381-386.
# (§2) The controlling effect according to the present invention is determined by testing the Warm Body assay against the yellow fever mosquito, Aedes aegypti Rockefeller strain. […] Observations of controlling efficacy were made on host-seeking females of uniform age, 5 to 10 days old selected as mentioned in the publication mentioned hereinabove. Tested hungry females had access to 10% sugar solution but were not blood-fed.
# (§3) The published protocol has been adapted in not manually counting the landing mosquitoes but automatically using an automatic counting software, the switch from Anopheles gambiae to A. aegypti led to a decrease of mosquitoes' number placed in the tested cage due to the size difference (i.e. 30 mosquitoes instead of 50) and to an increase of lighting as A. aegypti is a diurnal mosquitoes (i.e. 150 lux instead of 4 lux).
# as §2, with “A.” for “Aedes”
# as §1, with “The” for “The arthropod”, “was assessed” for “is determined on mosquitoes”
# as §3, with “Aedes” for “A.”
# In this in-vitro assay the number of A. aegypti landing on a warm body treated with the tested stimuli was measured in order to assess the repellency effect. Three replicates were carried on the three different doses: 0.0016%, 0.04% and 1% in ethanol, using 25 A. aegypti 10-12 days old females per cage.
# In this in-vitro assay, the number of Aedes aegypti landing on a warm body treated with the tested stimuli was measured in order to assess the repellency effect. Three replicates were carried on the three different doses: 0.0016%, 0.04% and 1% in ethanol.
# In this in-vitro assay, the number of Aedes aegypti landing on a warm body treated with the tested stimuli was measured in order to assess the repellency effect. One replicate was carried at different doses ranging from 0.0016% up to 1% in ethanol.
# Ixodes ricinus = experiment: In vitro Warm Plate Assay for ticks; assay type: in vivo; settings: for pest or weed control at 0.0016 % / pest or weed control at 0.04 % / pest or weed control at 1 % / pest or weed control at 0.00032 % / pest or weed control at 0.008 % / pest or weed control at 0.2 %: Ixodes ricinus, read-out: percentage of ticks affected on the Warm Plate; for pest or weed control at 0.00032 %: 0.00032% (Table 10); for pest or weed control at 0.008 %: 0.008% (Table 10); for pest or weed control at 0.2 %: 0.2% (Table 10)
# Description: Repellent efficacy of the different compounds was assessed against the sheep tick, Ixodes ricinus. I. ricinus is one of the recommended model organisms mentioned by the Guidance on the European Biological Products Regulation [Vol II, Efficacy-Assessment & Evaluation (Parts B+C), v. 3.0, April 2018]. Observations of repellent efficacy were made on last stage nymphs.
# The repellent efficacy was assessed using the protocol of the in-vitro Warm Plate Assay as defined in Kröber T, Bourquin M, Guerin P M. A standardized in vivo and in vitro test method for evaluating tick repellents. Pesticide Biochemistry and Physiology. 2013; 107 (2): 160-168.].
# The mean±SD number of ticks Ixodes ricinus walking down (affected), falling (affected) or walking-up (non affected) from the warm plate treated with ethanol, N,N-diethyl-3-methylbenzamide, (2,5-dimethyl-2,3-dihydro-1H-inden-2yl)methanol (Ingredient 2) or (2,4,6-trimethyl-2,3-dihydro-1H-inden-2-yl)methanol (Ingredient 1) diluted in ethanol at 0.4 mg/ml and 10 mg/mL was assessed on n groups of 12 ticks (n=2-5).
# In this in-vitro assay, the percentage of ticks Ixodes ricinus affected by the stimulus loaded on the warm plate was measured in order to assess the repellency effect. Twelve ticks were assessed per concentrations that goes from 0.0016% up to 1% in ethanol.
# Using the same in-vitro setup, the effect on ticks behavior (n≥12) of different stimuli diluted in ethanol at 20% (w/w) was assessed overtime.
# [1] = Aedes aegypti, read-out: decrease of landings
compound,measurement,setting,value
"Cc1ccc2c(c1)C(O)C(C)(CO)C2 (racemic) [2-(hydroxymethyl)-2,6-dimethyl-2,3-dihydro-1H-inden-1-ol]",repellent effect with increasing amount of stimuli (in words),"Aedes aegypti; 0.0016%, 0.04% and 1% in ethanol (FIG. 10)",low decrease of landing
"C[C@H]1O[C@@H]2c3ccccc3C[C@@H]2[C@@H](C)O1 (racemic) [(2RS,4RS,4ARS,9BSR)-2,4-dimethyl-4,4a,5,9b-tetrahydroindeno[1,2-d][1,3]dioxine]",number of mosquitoes landed on the Warm Body,Aedes aegypti; 0.0016% in ethanol (Table 6),17
same,number of mosquitoes landed on the Warm Body,Aedes aegypti; 0.04% in ethanol (Table 6),13
"C[C@@H]1O[C@H](C)[C@@H]2Cc3ccccc3[C@@H]2O1 (racemic) [(2RS,4RS,4ASR,9BRS)-2,4-dimethyl-4,4a,5,9b-tetrahydroindeno[1,2-d][1,3]dioxine]",number of mosquitoes landed on the Warm Body,Aedes aegypti; 0.0016% in ethanol (Table 6),11
same,number of mosquitoes landed on the Warm Body,Aedes aegypti; 0.04% in ethanol (Table 6),6
same,number of mosquitoes landed on the Warm Body,Aedes aegypti; 1% in ethanol (Table 6),2
"C[C@@H]1OC[C@]2(C)Cc3ccccc3[C@@H]2O1 (racemic) [(2RS,4aSR,9bSR)-2,4a-dimethyl-4,4a,5,9b-tetrahydroindeno[1,2-d][1,3]dioxin]",number of mosquitoes landed on the Warm Body,Aedes aegypti; 0.0016% in ethanol (Table 6),34
same,number of mosquitoes landed on the Warm Body,Aedes aegypti; 0.04% in ethanol (Table 6),18
same,number of mosquitoes landed on the Warm Body,Aedes aegypti; 1% in ethanol (Table 6),6
"Cc1ccc2c(c1)C[C@]1(C)COC(C)(C)O[C@H]21 (racemic) [(4aRS,9bRS)-2,2,4a,7-tetramethyl-4,4a,5,9b-tetrahydroindeno[1,2-d][1,3]dioxine]",number of mosquitoes landed on the Warm Body,Aedes aegypti; 0.0016% in ethanol (Table 6),51
same,number of mosquitoes landed on the Warm Body,Aedes aegypti; 0.04% in ethanol (Table 6),44
same,number of mosquitoes landed on the Warm Body,Aedes aegypti; 1% in ethanol (Table 6),8
"Cc1ccc2c(c1)[C@H]1OC(C)(C)OC[C@@]1(C)C2 (racemic) [(4aRS,9bRS)-2,2,4a,8-tetramethyl-4,4a,5,9b-tetrahydroindeno[1,2-d][1,3]dioxine]",number of mosquitoes landed on the Warm Body,Aedes aegypti; 0.0016% in ethanol (Table 6),59
same,number of mosquitoes landed on the Warm Body,Aedes aegypti; 0.04% in ethanol (Table 6),12
same,number of mosquitoes landed on the Warm Body,Aedes aegypti; 1% in ethanol (Table 6),11
"CC1(C)OC[C@@]2(C)Cc3ccccc3[C@H]2O1 (racemic) [(4aRS,9bRS)-2,2,4a-trimethyl-4,4a,5,9b-tetrahydroindeno[1,2-d][1,3]dioxine]",number of mosquitoes landed on the Warm Body,Aedes aegypti; 0.0016% in ethanol (Table 6),42
same,number of mosquitoes landed on the Warm Body,Aedes aegypti; 0.04% in ethanol (Table 6),47
same,number of mosquitoes landed on the Warm Body,Aedes aegypti; 1% in ethanol (Table 6),2
"Cc1ccc2c(c1)C[C@]1(C)COCO[C@H]21 (racemic) [(4aRS,9bRS)-4a,7-dimethyl-4,4a,5,9b-tetrahydroindeno[1,2-d][1,3]dioxine]",number of mosquitoes landed on the Warm Body,Aedes aegypti; 0.0016% in ethanol (Table 6),17
"Cc1ccc2c(c1)[C@H]1OCOC[C@@]1(C)C2 (racemic) [(4aRS,9bRS)-4a,8-dimethyl-4,4a,5,9b-tetrahydroindeno[1,2-d][1,3]dioxin]",number of mosquitoes landed on the Warm Body,Aedes aegypti; 0.0016% in ethanol (Table 6),34
same,number of mosquitoes landed on the Warm Body,Aedes aegypti; 0.04% in ethanol (Table 6),20
same,number of mosquitoes landed on the Warm Body,Aedes aegypti; 1% in ethanol (Table 6),5
"CC1(C)OC[C@H]2Cc3ccccc3[C@H]2O1 (racemic) [(4aRS,9bSR)-2,2-dimethyl-4,4a,5,9b-tetrahydroindeno[1,2-d][1,3]dioxin]",number of mosquitoes landed on the Warm Body,Aedes aegypti; 0.0016% in ethanol (Table 6),30
same,number of mosquitoes landed on the Warm Body,Aedes aegypti; 0.04% in ethanol (Table 6),1
same,number of mosquitoes landed on the Warm Body,Aedes aegypti; 1% in ethanol (Table 6),0
"COC(=O)C1(C)Cc2ccc(C)cc2C1 (racemic) [(+−)-methyl 2,5-dimethyl-2,3-dihydro-1H-indene-2-carboxylate]",pest or weed control at 0.0016 %,Ixodes ricinus; 0.0016% (Table 11),7%
same,pest or weed control at 0.04 %,Ixodes ricinus; 0.04% (Table 11),18%
same,pest or weed control at 1 %,Ixodes ricinus; 1% (Table 11),100%
"Cc1ccc2c(c1)CC(C)(C(=O)O)C2 (stereo not shown) [2,5-dimethyl-2,3-dihydro-1H-indene-2-carboxylic acid]",pest or weed control at 0.0016 %,Aedes aegypti; [1],4 to 29%
"COCOCC1(C)Cc2ccc(C)cc2C1 (stereo not shown) [2-((methoxymethoxy)methyl)-2,5-dimethyl-2,3-dihydro-1H-indene]",pest or weed control at 0.00032 %,Ixodes ricinus,0%
same,pest or weed control at 0.0016 %,Ixodes ricinus; 0.0016% (Table 10),17%
same,pest or weed control at 0.008 %,Ixodes ricinus,0%
same,pest or weed control at 0.04 %,Ixodes ricinus; 0.04% (Table 10),33%
same,pest or weed control at 0.2 %,Ixodes ricinus,54%
same,pest or weed control at 1 %,Ixodes ricinus; 1% (Table 10),100%
"COC(C)OCC1(C)Cc2ccc(C)cc2C1 (stereo not shown) [2-[(1-methoxyethoxy)methyl]-2,5-dimethylindane]",pest or weed control at 0.00032 %,Ixodes ricinus,8%
same,pest or weed control at 0.0016 %,Ixodes ricinus; 0.0016% (Table 10),0%
same,pest or weed control at 0.008 %,Ixodes ricinus,21%
same,pest or weed control at 0.04 %,Ixodes ricinus; 0.04% (Table 10),33%
same,pest or weed control at 0.2 %,Ixodes ricinus,64%
same,pest or weed control at 1 %,Ixodes ricinus; 1% (Table 10),100%
"Cc1ccc2c(c1)C1OC(=O)OCC1(C)C2 (stereo not shown) [4a,8-dimethyl-indano[1,2-d]-1,3-dioxan-2-one]",decrease of landings,Aedes aegypti; 0.04% in ethanol (FIG. 8),~70%
"CC(C)(C)c1ccc2c(c1)CC1(COC1)C2 [5-(tert-butyl)-1,3-dihydrospiro[indene-2,3′-oxetane]]",pest or weed control at 0.0016 %,Ixodes ricinus; 0.0016% (Table 11),0%
same,pest or weed control at 0.04 %,Ixodes ricinus; 0.04% (Table 11),17%
same,pest or weed control at 1 %,Ixodes ricinus; 1% (Table 11),86%
CCc1ccc2c(c1)CC(C)(CO)C2 (stereo not shown) [5-ethyl-2-methyl-2-indanmethanol],pest or weed control at 0.04 %,Aedes aegypti; [1],~70%
"Cc1cc2c(cc1C)CC(C)(CO)C2 [(2,5,6-trimethyl-2,3-dihydro-1H-inden-2-yl)methanol]",pest or weed control at 0.0016 %,Ixodes ricinus; 0.0016% (Table 11),17%
same,pest or weed control at 0.04 %,Ixodes ricinus; 0.04% (Table 11),38%
same,pest or weed control at 1 %,Ixodes ricinus; 1% (Table 11),77%
"CC(=O)OCC1(C)Cc2ccccc2C1 [(2-methyl-2,3-dihydro-1H-inden-2-yl)methyl acetate]",pest or weed control at 0.04 %,Ixodes ricinus; 0.04% (Table 10),25%
same,pest or weed control at 0.2 %,Ixodes ricinus,58%
same,pest or weed control at 1 %,Ixodes ricinus; 1% (Table 10),100%
"Cc1ccc2c(c1)[C@@H]1O[C@H](C)OC[C@]1(C)C2 [(2R,4aS,9bS)-2,4a,8-trimethyl-4,4a,5,9b-tetrahydroindeno[1,2-d][1,3]dioxin]",number of mosquitoes landed on the Warm Body,Aedes aegypti; 0.0016% in ethanol (Table 6),40
same,number of mosquitoes landed on the Warm Body,Aedes aegypti; 0.04% in ethanol (Table 6),8
same,number of mosquitoes landed on the Warm Body,Aedes aegypti; 1% in ethanol (Table 6),10
"CC1OC(C)C2Cc3ccccc3C2O1 (stereo not shown) [ingredient #5, 2,4-dimethyl-4,4a,5,9b-tetrahydroindeno[1,2-d][1,3]dioxine]",percentage of ticks being affected,Ixodes ricinus; 0.00032% (Table 9),0%
same,percentage of ticks being affected,Ixodes ricinus; 0.00071% (Table 9),0%
same,percentage of ticks being affected,Ixodes ricinus; 0.0016% (Table 9),17%
same,percentage of ticks being affected,Ixodes ricinus; 0.00357% (Table 9),0%
same,percentage of ticks being affected,Ixodes ricinus; 0.0053% (Table 9),0%
same,percentage of ticks being affected,Ixodes ricinus; 0.008% (Table 9),0%
same,percentage of ticks being affected,Ixodes ricinus; 0.0119% (Table 9),0%
same,percentage of ticks being affected,Ixodes ricinus; 0.0178% (Table 9),8%
same,percentage of ticks being affected,Ixodes ricinus; 0.0267% (Table 9),0%
same,percentage of ticks being affected,Ixodes ricinus; 0.04% (Table 9),15%
same,percentage of ticks being affected,Ixodes ricinus; 0.0598% (Table 9),0%
same,percentage of ticks being affected,Ixodes ricinus; 0.089% (Table 9),7%
same,percentage of ticks being affected,Ixodes ricinus; 0.2% (Table 9),38%
same,percentage of ticks being affected,Ixodes ricinus; 0.447% (Table 9),71%
same,percentage of ticks being affected,Ixodes ricinus; 1% (Table 9),62%
"(2,5-dimethyl-2-indanyl)methyl formate)methanol",percentage of ticks affected on the Warm Plate,Ixodes ricinus; 0.0016% (Table 11),0%
same,percentage of ticks affected on the Warm Plate,Ixodes ricinus; 0.04% (Table 11),15%
same,percentage of ticks affected on the Warm Plate,Ixodes ricinus; 1% (Table 11),100%
